Data: PubChem BioAssay AID248 (DTP/NCI, 2004)
Where “and” joins values, the source holds several entries; their conditions need not be identical. Identical values can stand only once. Inconclusive results and toxic doses are left out.

System: L1210 leukemia ip in BDF1 mice, survival T/C
Test: NCI In Vivo Anticancer Drug Screen. Data for tumor model L1210 Leukemia (intraperitoneal) in B6D2F1 (BDF1) mice
Details: endpoint: mean survival time, higher = longer survival
Procedure, shortened: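 Antitumor effect is assessed in tumor-bearing animals. Survival in the compound arm is compared with a vehicle-dosed control arm and expressed as their quotient.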

[1] = dose: 100.0 mg/kg/injection, schedule: Q01DX009 (ip), vehicle: Klucel (hydroxypropylcellulose) (HPC)
[2] = dose: 100.0 mg/kg/injection, schedule: Q04DX003 (ip), vehicle: Klucel (hydroxypropylcellulose) (HPC)
[3] = dose: 200.0 mg/kg/injection, schedule: Q01DX009 (ip), vehicle: Klucel (hydroxypropylcellulose) (HPC)
[4] = dose: 200.0 mg/kg/injection, schedule: Q04DX003 (ip), vehicle: Klucel (hydroxypropylcellulose) (HPC)
[5] = dose: 400.0 mg/kg/injection, schedule: Q01DX009 (ip), vehicle: Klucel (hydroxypropylcellulose) (HPC)
[6] = dose: 400.0 mg/kg/injection, schedule: Q04DX003 (ip), vehicle: Klucel (hydroxypropylcellulose) (HPC)
[7] = dose: 100.0 mg/kg/injection, schedule: Q01DX001 (ip), vehicle: carboxymethylcellulose (CMC)
[8] = dose: 200.0 mg/kg/injection, schedule: Q01DX001 (ip), vehicle: carboxymethylcellulose (CMC)
[9] = dose: 400.0 mg/kg/injection, schedule: Q01DX001 (ip), vehicle: carboxymethylcellulose (CMC)
[10] = dose: 100.0 mg/kg/injection, schedule: Q01DX001 (ip), vehicle: saline
[11] = dose: 200.0 mg/kg/injection, schedule: Q01DX001 (ip), vehicle: saline
[12] = dose: 400.0 mg/kg/injection, schedule: Q01DX001 (ip), vehicle: saline
[13] = dose: 100.0 mg/kg/injection, schedule: Q04DX002 (ip), vehicle: saline with Tween-80

In the case of `CC1(OC(=O)c2ccccc2)C2C=CC1C1C(=O)NC12` (configuration not stated), the T/C [1] is reported as 87 % of control, the T/C [2] is reported as 106 % of control and the T/C [3] is reported as 102 % of control. The T/C [4] was 102 % of control, the T/C [5] was 104 % of control and the T/C [6] was 96 % of control.

For `Cc1ccc(NC(=S)N(CCC#N)Cc2ccccc2)cc1C`, the T/C [7] was 94 % of control, the T/C (dose: 100.0 mg/kg/injection, schedule: Q01DX009 (ip), vehicle: carboxymethylcellulose (CMC)) was 93 % of control and 107 % of control and the T/C (dose: 100.0 mg/kg/injection, schedule: Q04DX002 (ip), vehicle: carboxymethylcellulose (CMC)) was 98 % of control. The T/C (dose: 100.0 mg/kg/injection, schedule: Q04DX003 (ip), vehicle: carboxymethylcellulose (CMC)) was 90 % of control, the T/C [8] was 100 % of control and the T/C (dose: 200.0 mg/kg/injection, schedule: Q01DX009 (ip), vehicle: carboxymethylcellulose (CMC)) was 89 % of control and 91 % of control. The T/C (dose: 200.0 mg/kg/injection, schedule: Q04DX002 (ip), vehicle: carboxymethylcellulose (CMC)) was 101 % of control and 88 % of control, the T/C (dose: 200.0 mg/kg/injection, schedule: Q04DX003 (ip), vehicle: carboxymethylcellulose (CMC)) was 95 % of control and the T/C [9] was 90 % of control. The T/C (dose: 400.0 mg/kg/injection, schedule: Q01DX009 (ip), vehicle: carboxymethylcellulose (CMC)) was 86 % of control, the T/C (dose: 400.0 mg/kg/injection, schedule: Q04DX002 (ip), vehicle: carboxymethylcellulose (CMC)) was 95 % of control and 88 % of control and the T/C (dose: 400.0 mg/kg/injection, schedule: Q04DX003 (ip), vehicle: carboxymethylcellulose (CMC)) was 90 % of control.

`CCc1ccccc1NC(=O)N1CCN(C)CC1` was tested, and the T/C (dose: 100.0 mg/kg/injection, schedule: Q01DX009 (ip), vehicle: saline) was 104 % of control and the T/C (dose: 200.0 mg/kg/injection, schedule: Q01DX009 (ip), vehicle: saline) was 92 % of control.

For `Nc1nc(CO)c(CCCCc2ccccc2)c(=O)[nH]1`, the T/C (dose: 50.0 mg/kg/injection, schedule: Q01DX001 (ip), vehicle: saline) was 101 % of control, the T/C [10] was 101 % of control and the T/C [11] was 98 % of control. The T/C [12] was 101 % of control.

With `N#CC(c1cccnc1)N1CCOCC1` (configuration not stated) the T/C (dose: 25.0 mg/kg/injection, schedule: Q04DX002 (ip), vehicle: saline with Tween-80) was 103 % of control, the T/C (dose: 50.0 mg/kg/injection, schedule: Q04DX002 (ip), vehicle: saline with Tween-80) was 100 % of control and the T/C [13] was 96 % of control.

For `CCCC(=O)OCC1OC(n2cnc3c(=S)nc[nH]c32)C(OC(=O)CCC)C1OC(=O)CCC` (configuration not stated), the T/C (dose: 3.12 mg/kg/injection, schedule: Q04DX003 (ip), vehicle: saline) was 97 % of control, the T/C (dose: 6.25 mg/kg/injection, schedule: Q01DX009 (ip), vehicle: saline) was 112 % of control and the T/C (dose: 6.25 mg/kg/injection, schedule: Q01DX Z (ip), vehicle: other) was 117 % of control. For the same compound, the T/C (dose: 6.25 mg/kg/injection, schedule: Q04DX003 (ip), vehicle: saline) was 113 % of control, the T/C (dose: 8.36 mg/kg/injection, schedule: Q01DX009 (ip), vehicle: saline with Tween-80) was 122 % of control and the T/C (dose: 8.36 mg/kg/injection, schedule: Q04DX003 (ip), vehicle: saline with Tween-80) was 107 % of control. For the same compound, the T/C (dose: 12.5 mg/kg/injection, schedule: Q01DX009 (ip), vehicle: saline) was 122 % of control, the T/C (dose: 12.5 mg/kg/injection, schedule: Q04DX003 (ip), vehicle: saline with Tween-80) was 114 % of control and the T/C (dose: 12.5 mg/kg/injection, schedule: Q04DX003 (ip), vehicle: saline) was 118 % of control. For the same compound, the T/C (dose: 25.0 mg/kg/injection, schedule: Q01DX Z (ip), vehicle: other) was 153 % of control, the T/C (dose: 25.0 mg/kg/injection, schedule: Q04DX003 (ip), vehicle: saline) was 121 % of control and the T/C (dose: 26.0 mg/kg/injection, schedule: Q01DX001 (ip), vehicle: saline) was 121 % of control. The T/C (dose: 40.0 mg/kg/injection, schedule: Q01DX001 (ip), vehicle: saline) was 121 % of control, the T/C (dose: 50.0 mg/kg/injection, schedule: Q01DX009 (ip), vehicle: saline) was 164 % of control and the T/C (dose: 50.0 mg/kg/injection, schedule: Q01DX Z (ip), vehicle: other) was 89 % of control. For the same compound, the T/C (dose: 200.0 mg/kg/injection, schedule: Q04DX003 (ip), vehicle: saline) was 123 % of control, the T/C (dose: 300.0 mg/kg/injection, schedule: Q01DX001 (ip), vehicle: saline) was 151 % of control and the T/C [12] was 121 % of control. The T/C (dose: 400.0 mg/kg/injection, schedule: Q01DX009 (ip), vehicle: saline) was 100 % of control and the T/C (dose: 400.0 mg/kg/injection, schedule: Q04DX003 (ip), vehicle: saline) was 105 % of control.

In the case of `CC(C)(C)c1cc(C=O)cc(C(C)(C)C)c1O`, the T/C [13] is reported as 95 % of control, the T/C (dose: 200.0 mg/kg/injection, schedule: Q04DX002 (ip), vehicle: saline with Tween-80) is reported as 95 % of control and the T/C (dose: 400.0 mg/kg/injection, schedule: Q04DX002 (ip), vehicle: saline with Tween-80) is reported as 91 % of control.

In the case of `O=C1C(=O)c2ccccc2C(O)=C1CCCc1ccc(OCc2ccccc2)cc1`, the T/C (dose: 12.5 mg/kg/injection, schedule: Q01DX009 (ip), vehicle: saline with Tween-80) is reported as 92 % of control.

In the case of `NC(=O)c1cc(N2CC2)c([N+](=O)[O-])cc1[N+](=O)[O-]`, the T/C (dose: 5.0 mg/kg/injection, schedule: Q01DX001 (ip), vehicle: other) is reported as 110 % of control, the T/C (dose: 10.0 mg/kg/injection, schedule: Q01DX001 (ip), vehicle: other) is reported as 98 % of control and the T/C (dose: 10.0 mg/kg/injection, schedule: Q01DX009 (ip), vehicle: saline) is reported as 105 % of control. For the same compound, the T/C (dose: 20.0 mg/kg/injection, schedule: Q01DX001 (ip), vehicle: other) was 101 % of control, the T/C (dose: 20.0 mg/kg/injection, schedule: Q01DX009 (ip), vehicle: saline) was 105 % of control and the T/C (dose: 40.0 mg/kg/injection, schedule: Q01DX001 (ip), vehicle: other) was 106 % of control. For the same compound, the T/C (dose: 40.0 mg/kg/injection, schedule: Q01DX009 (ip), vehicle: saline) was 113 % of control, the T/C (dose: 50.0 mg/kg/injection, schedule: Q01DX001 (ip), vehicle: other) was 94 % of control and the T/C (dose: 80.0 mg/kg/injection, schedule: Q01DX001 (ip), vehicle: other) was 97 % of control. For the same compound, the T/C (dose: 100.0 mg/kg/injection, schedule: Q01DX001 (ip), vehicle: other) was 96 % of control.

For `N#C/C([S-])=C(/[S-])C#N.N#C/C([S-])=C(/[S-])C#N.[Co].c1ccc([P+](c2ccccc2)(c2ccccc2)c2ccccc2)cc1`, the T/C (dose: 75.0 mg/kg/injection, schedule: Q01DX009 (ip), vehicle: Klucel (hydroxypropylcellulose) (HPC)) was 121 % of control, the T/C (dose: 75.0 mg/kg/injection, schedule: Q04DX003 (ip), vehicle: saline) was 100 % of control and the T/C (dose: 150.0 mg/kg/injection, schedule: Q01DX009 (ip), vehicle: Klucel (hydroxypropylcellulose) (HPC)) was 110 % of control. The T/C (dose: 150.0 mg/kg/injection, schedule: Q04DX003 (ip), vehicle: saline) was 110 % of control, the T/C (dose: 300.0 mg/kg/injection, schedule: Q01DX009 (ip), vehicle: Klucel (hydroxypropylcellulose) (HPC)) was 103 % of control and the T/C (dose: 300.0 mg/kg/injection, schedule: Q04DX003 (ip), vehicle: saline) was 98 % of control.

For `O=C1OCC(C(=O)c2ccccc2)C1=Nc1ccccc1O` (configuration not stated), the T/C (dose: 50.0 mg/kg/injection, schedule: Q01DX001 (ip), vehicle: carboxymethylcellulose (CMC)) was 94 % of control, the T/C [7] was 100 % of control and the T/C [8] was 100 % of control. The T/C [9] was 92 % of control.

`CC(C)=NC(=O)NO.[Cl][Co][Cl]` was tested, and the T/C (dose: 9.4 mg/kg/injection, schedule: Q04DX003 (ip), vehicle: saline) was 100 % of control, the T/C (dose: 18.75 mg/kg/injection, schedule: Q04DX003 (ip), vehicle: saline) was 107 % of control and the T/C (dose: 37.5 mg/kg/injection, schedule: Q04DX003 (ip), vehicle: saline) was 107 % of control. The T/C (dose: 75.0 mg/kg/injection, schedule: Q01DX001 (ip), vehicle: saline) was 103 % of control.

With `O=[N+]([O-])c1cc2c3c(cccc3c1)CC2` the T/C [10] was 95 % of control and 97 % of control, the T/C (dose: 100.0 mg/kg/injection, schedule: Q04DX002 (ip), vehicle: saline) was 105 % of control and the T/C [11] was 100 % of control. For the same compound, the T/C (dose: 200.0 mg/kg/injection, schedule: Q04DX002 (ip), vehicle: saline) was 100 % of control, the T/C [12] was 100 % of control and 110 % of control and the T/C (dose: 400.0 mg/kg/injection, schedule: Q04DX002 (ip), vehicle: saline) was 101 % of control.

In the case of `Nc1[nH]c(=O)[nH]c(=O)c1Br`, the T/C [1] is reported as 97 % of control, the T/C [2] is reported as 100 % of control and the T/C [3] is reported as 103 % of control. For the same compound, the T/C [4] was 100 % of control, the T/C [5] was 101 % of control and the T/C [6] was 97 % of control.
